The values that follow come from ChEMBL document CHEMBL5291721, “A preclinical secondary pharmacology resource illuminates target-adverse drug reaction associations of marketed drugs” (Nat Commun, 2023).

Structures are written as SMILES.

Some targets named below: Estrogen receptor beta (Homo sapiens, UniProt Q92731); Glucagon receptor (Homo sapiens, UniProt P47871); Substance-P receptor (Homo sapiens, UniProt P25103).
Assay [1] has as its target Sodium channel protein type 5 subunit alpha (Homo sapiens, UniProt Q14524). Type of assay: functional, cell-based.
The target of assay [2] is T1, Alpha-1A adrenergic receptor (Homo sapiens, UniProt P35348).
T1 sequence (P35348 whole entry): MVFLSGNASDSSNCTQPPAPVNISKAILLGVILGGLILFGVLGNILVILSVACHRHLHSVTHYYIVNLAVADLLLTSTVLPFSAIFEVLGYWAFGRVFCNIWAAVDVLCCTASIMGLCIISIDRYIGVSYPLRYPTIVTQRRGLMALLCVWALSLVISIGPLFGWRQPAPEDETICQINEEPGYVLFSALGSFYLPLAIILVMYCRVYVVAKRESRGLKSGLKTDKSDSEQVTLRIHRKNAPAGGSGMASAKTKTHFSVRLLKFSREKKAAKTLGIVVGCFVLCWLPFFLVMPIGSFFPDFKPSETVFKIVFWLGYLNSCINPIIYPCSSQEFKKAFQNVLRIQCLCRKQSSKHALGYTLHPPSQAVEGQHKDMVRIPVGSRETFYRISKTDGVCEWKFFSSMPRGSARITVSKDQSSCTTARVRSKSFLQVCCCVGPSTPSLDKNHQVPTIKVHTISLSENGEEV

Assay [3] has as its target 5-hydroxytryptamine receptor 6 (Homo sapiens, UniProt P50406).
For assay [4], the target named is Gamma-aminobutyric acid type B receptor subunit 1 (Homo sapiens, UniProt Q9UBS5).
Gamma-aminobutyric acid type B receptor subunit 1, sequence (Q9UBS5 whole entry): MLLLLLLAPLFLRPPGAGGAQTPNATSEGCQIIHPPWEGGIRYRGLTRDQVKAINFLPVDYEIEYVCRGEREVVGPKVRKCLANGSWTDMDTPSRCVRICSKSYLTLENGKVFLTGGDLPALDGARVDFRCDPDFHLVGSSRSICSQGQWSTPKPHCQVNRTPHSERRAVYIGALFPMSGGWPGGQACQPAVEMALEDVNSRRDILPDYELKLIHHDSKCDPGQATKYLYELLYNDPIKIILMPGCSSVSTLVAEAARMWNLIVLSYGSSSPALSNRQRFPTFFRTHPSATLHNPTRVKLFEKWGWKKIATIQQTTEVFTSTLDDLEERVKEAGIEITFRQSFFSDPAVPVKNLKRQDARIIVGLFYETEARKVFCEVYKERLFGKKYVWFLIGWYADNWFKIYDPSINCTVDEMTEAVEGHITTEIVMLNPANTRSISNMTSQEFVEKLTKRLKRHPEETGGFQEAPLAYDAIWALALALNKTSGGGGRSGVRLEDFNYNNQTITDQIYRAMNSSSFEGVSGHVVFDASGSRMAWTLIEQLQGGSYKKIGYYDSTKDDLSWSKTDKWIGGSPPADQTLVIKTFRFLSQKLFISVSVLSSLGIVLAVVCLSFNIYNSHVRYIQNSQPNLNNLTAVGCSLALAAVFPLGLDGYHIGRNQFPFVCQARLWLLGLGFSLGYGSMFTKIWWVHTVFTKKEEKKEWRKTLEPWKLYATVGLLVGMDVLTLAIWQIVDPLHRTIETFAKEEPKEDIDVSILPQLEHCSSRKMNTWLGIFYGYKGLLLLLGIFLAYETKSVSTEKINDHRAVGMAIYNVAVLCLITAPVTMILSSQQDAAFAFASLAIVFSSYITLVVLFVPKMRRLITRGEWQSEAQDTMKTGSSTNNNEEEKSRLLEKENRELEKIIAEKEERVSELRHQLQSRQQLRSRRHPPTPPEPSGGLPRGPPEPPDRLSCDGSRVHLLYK
Assay [5] has as its target 5-hydroxytryptamine receptor 7 (Homo sapiens, UniProt P34969).
The next assay deals with Cannabinoid receptor 1 (Homo sapiens, UniProt P21554). Type of assay: functional.
Cannabinoid receptor 1, sequence (P21554 whole entry): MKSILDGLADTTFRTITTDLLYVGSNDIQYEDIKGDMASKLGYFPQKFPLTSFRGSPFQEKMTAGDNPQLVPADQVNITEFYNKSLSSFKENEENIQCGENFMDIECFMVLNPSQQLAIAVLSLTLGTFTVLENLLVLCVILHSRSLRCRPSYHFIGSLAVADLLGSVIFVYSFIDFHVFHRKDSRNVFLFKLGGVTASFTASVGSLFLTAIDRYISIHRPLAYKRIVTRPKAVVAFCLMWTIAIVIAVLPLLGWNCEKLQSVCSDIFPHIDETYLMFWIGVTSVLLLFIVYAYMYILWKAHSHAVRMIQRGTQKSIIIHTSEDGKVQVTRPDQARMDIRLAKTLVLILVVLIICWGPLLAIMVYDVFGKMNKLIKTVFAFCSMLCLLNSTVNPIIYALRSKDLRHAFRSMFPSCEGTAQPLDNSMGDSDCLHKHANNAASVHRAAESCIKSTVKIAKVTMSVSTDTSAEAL
For the next assay, the target named is T2, D(4) dopamine receptor (Homo sapiens, UniProt P21917).
T2 sequence (P21917 whole entry): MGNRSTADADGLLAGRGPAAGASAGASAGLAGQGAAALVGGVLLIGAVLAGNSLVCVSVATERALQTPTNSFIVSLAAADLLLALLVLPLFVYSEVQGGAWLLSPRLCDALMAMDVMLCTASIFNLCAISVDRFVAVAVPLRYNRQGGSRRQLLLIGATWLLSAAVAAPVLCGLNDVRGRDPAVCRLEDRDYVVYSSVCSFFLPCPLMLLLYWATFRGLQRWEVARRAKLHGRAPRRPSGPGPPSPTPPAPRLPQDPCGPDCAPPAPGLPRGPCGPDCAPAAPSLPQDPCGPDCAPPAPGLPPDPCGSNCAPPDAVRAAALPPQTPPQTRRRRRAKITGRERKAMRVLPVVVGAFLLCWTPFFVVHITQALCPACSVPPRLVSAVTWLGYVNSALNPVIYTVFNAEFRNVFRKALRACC

Assay [6] deals with T3, Muscarinic acetylcholine receptor M1 (Homo sapiens, UniProt P11229).
T3 sequence (P11229 whole entry): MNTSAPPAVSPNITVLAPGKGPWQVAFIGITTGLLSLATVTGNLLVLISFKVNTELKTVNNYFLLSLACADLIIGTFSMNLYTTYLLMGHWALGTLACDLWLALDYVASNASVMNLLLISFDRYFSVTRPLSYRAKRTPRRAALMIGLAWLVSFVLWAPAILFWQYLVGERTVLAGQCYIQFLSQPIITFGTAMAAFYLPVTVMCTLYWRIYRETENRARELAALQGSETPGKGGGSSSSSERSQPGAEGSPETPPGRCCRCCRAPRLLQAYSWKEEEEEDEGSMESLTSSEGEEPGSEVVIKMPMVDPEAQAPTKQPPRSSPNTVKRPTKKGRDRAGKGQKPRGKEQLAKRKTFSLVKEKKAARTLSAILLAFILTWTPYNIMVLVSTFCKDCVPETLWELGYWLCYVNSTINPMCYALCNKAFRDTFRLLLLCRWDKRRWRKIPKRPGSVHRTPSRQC
Type of assay: functional, cell-based.

Assay [7] addresses T1, Alpha-1A adrenergic receptor. Type of assay: functional, cell-based.
The target of assay [8] is Gamma-aminobutyric acid receptor subunit alpha-1 (Rattus norvegicus, UniProt P62813).
The target in the next assay is T4, Thromboxane A2 receptor (Homo sapiens, UniProt P21731).
T4 sequence (P21731 whole entry): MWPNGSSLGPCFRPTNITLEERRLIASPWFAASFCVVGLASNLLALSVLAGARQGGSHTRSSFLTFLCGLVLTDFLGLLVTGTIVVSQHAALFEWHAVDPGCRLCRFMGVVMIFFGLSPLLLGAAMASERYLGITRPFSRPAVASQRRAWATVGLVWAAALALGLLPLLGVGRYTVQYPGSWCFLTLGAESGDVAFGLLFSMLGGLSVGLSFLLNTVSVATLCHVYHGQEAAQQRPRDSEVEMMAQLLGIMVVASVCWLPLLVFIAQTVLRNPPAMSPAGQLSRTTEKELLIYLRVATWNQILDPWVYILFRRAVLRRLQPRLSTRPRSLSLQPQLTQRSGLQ
Type of assay: functional, cell-based.

Assay [9] concerns the target T5, Amine oxidase [flavin-containing] A (Homo sapiens, UniProt P21397).
T5 sequence (P21397 whole entry): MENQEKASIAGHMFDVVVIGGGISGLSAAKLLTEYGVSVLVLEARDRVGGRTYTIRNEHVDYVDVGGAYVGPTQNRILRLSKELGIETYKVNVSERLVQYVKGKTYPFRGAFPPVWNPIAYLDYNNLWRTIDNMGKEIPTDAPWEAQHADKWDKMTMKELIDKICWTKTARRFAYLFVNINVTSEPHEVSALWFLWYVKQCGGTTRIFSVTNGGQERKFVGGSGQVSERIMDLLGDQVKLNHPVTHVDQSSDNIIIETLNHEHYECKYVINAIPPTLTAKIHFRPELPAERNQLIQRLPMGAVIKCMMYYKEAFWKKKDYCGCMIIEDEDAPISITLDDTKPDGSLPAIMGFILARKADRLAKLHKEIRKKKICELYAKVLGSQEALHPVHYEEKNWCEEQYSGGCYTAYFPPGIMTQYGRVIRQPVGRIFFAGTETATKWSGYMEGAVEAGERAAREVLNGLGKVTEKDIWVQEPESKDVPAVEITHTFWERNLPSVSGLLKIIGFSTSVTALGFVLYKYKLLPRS
Type of assay: functional.

Assay [10] concerns the target Gamma-aminobutyric acid receptor subunit alpha-1/alpha-2/beta-2/gamma-2 (Homo sapiens, UniProt P14867+P18507+P47869+P47870). Type of assay: protein-complex assay.
Also: assay procedure not described here.

Estrogen receptor beta, sequence (Q92731 whole entry): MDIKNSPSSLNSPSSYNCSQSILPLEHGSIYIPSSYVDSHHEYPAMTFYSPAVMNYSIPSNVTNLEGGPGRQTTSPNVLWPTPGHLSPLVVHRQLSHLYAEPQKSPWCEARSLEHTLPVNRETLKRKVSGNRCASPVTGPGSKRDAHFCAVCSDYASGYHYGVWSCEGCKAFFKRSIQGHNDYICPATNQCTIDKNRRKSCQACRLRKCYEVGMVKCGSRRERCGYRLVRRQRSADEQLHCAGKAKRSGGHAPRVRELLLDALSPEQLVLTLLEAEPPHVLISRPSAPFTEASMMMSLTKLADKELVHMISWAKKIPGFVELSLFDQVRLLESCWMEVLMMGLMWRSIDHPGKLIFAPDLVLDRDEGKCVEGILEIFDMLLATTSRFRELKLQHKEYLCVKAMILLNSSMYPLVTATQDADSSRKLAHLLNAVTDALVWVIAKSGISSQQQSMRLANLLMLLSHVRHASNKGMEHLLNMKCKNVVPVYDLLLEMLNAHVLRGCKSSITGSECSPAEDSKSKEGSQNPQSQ
Glucagon receptor, sequence (P47871 whole entry): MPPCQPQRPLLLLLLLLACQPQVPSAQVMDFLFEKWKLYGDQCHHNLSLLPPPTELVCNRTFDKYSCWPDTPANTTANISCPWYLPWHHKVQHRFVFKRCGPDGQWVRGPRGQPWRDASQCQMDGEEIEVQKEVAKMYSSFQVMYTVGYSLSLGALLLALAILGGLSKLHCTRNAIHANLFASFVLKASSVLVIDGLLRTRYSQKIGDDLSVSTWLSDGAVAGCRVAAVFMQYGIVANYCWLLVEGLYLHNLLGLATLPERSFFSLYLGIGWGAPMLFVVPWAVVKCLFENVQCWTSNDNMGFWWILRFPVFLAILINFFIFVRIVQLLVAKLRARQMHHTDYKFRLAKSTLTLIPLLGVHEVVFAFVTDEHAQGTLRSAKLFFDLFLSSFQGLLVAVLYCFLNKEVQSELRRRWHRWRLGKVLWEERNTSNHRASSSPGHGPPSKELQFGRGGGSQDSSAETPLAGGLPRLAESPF
5-hydroxytryptamine receptor 6, sequence (P50406 whole entry): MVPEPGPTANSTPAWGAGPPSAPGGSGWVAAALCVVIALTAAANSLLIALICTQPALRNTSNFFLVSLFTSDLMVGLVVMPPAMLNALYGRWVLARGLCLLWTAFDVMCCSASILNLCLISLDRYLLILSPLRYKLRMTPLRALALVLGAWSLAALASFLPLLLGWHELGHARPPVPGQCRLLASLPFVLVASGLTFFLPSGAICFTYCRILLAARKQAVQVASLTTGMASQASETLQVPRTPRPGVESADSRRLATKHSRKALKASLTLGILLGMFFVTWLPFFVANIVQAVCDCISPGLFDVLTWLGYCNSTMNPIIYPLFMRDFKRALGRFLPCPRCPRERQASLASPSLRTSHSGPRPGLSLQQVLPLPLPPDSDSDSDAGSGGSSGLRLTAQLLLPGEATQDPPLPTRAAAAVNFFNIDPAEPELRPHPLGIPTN
Sodium channel protein type 5 subunit alpha, sequence (Q14524 whole entry): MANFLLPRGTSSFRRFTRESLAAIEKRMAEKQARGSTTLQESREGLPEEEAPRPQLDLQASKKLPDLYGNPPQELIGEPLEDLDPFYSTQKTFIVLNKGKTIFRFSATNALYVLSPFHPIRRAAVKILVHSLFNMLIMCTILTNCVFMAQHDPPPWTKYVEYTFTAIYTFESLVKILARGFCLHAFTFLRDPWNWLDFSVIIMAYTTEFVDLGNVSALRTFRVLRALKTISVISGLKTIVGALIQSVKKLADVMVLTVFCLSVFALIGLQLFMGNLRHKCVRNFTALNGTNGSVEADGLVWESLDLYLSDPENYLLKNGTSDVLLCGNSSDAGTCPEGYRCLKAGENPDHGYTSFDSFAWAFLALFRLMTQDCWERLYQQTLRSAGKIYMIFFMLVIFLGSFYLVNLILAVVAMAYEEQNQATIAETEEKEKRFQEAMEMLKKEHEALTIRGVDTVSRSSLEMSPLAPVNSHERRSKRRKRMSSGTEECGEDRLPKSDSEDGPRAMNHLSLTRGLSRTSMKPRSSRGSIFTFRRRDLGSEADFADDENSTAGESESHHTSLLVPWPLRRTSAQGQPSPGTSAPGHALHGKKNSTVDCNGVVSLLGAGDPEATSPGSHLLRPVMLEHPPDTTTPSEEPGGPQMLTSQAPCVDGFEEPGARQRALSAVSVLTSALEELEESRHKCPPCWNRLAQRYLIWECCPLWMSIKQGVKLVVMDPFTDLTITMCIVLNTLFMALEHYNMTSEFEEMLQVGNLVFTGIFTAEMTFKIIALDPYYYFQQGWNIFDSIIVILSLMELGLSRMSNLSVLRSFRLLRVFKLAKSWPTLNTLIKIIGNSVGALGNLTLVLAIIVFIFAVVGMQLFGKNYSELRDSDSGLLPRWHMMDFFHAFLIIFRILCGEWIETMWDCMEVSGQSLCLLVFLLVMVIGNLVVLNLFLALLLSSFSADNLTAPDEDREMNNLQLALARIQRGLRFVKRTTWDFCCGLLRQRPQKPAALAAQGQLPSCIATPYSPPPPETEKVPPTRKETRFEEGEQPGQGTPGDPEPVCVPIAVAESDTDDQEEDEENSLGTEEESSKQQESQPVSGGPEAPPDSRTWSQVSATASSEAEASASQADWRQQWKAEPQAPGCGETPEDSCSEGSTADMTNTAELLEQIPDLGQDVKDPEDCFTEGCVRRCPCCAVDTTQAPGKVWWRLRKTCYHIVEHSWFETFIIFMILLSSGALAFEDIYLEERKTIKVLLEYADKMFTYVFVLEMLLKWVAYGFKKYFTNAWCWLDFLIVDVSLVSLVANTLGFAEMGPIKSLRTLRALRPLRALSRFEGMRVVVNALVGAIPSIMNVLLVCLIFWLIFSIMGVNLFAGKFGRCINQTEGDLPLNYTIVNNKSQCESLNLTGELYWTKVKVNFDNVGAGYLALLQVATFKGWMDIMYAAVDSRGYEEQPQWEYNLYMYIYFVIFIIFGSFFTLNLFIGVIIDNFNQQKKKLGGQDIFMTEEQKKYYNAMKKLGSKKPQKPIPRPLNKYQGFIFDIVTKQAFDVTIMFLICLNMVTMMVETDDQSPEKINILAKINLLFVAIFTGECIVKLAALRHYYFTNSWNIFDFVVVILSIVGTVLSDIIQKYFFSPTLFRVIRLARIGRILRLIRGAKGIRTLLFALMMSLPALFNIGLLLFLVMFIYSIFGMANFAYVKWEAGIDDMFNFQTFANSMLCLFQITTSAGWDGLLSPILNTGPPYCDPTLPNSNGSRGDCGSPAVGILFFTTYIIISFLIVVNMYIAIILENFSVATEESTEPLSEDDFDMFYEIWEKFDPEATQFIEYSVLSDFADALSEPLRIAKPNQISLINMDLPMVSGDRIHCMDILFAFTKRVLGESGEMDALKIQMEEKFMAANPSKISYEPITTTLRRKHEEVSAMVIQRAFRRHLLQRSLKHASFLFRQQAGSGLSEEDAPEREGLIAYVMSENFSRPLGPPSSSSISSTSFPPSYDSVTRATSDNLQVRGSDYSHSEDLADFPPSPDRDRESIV

As a reminder, the AC50 is the concentration giving half of the maximal activity seen. A lower AC50 goes with greater potency. Regarding `Cn1c(=O)cc(N2CCC[C@@H](N)C2)n(Cc2ccccc2C#N)c1=O` [ALOGLIPTIN], the AC50 was more than 30 µM on Estrogen receptor beta; more than 150 µM in assay [1]; more than 10 µM in [2]; more than 10 µM in [3]; more than 10 µM in assay [4]; more than 10 µM in [5]. Besides, the AC50 at Glucagon receptor is more than 30 µM; on Substance-P receptor, more than 10 µM; on Cannabinoid receptor 1, more than 10 µM; on D(4) dopamine receptor, more than 10 µM.

For the compound `Nc1c2ccccc2nc2ccccc12` [AMINACRINE], the half-maximal activity concentration (AC50) in assay [6] was more than 30 µM; in [7] it was 9.77 µM; in [8], more than 30 µM; at Thromboxane A2 receptor, more than 30 µM; in assay [9], more than 30 µM.

On to `CC(=O)OCC(=O)[C@@]1(O)[C@H](C)C[C@H]2[C@@H]3CCC4=CC(=O)C=C[C@]4(C)[C@@]3(F)[C@@H](O)C[C@@]21C` [DEXAMETHASONE ACETATE], for which the AC50 at Estrogen receptor beta and at Glucagon receptor was more than 30 µM throughout.

With `O=C(O)CCCCC1CCSS1` (stereo not drawn) [LIPOIC ACID, ALPHA], the AC50 (in [7]; at Thromboxane A2 receptor; in [9]; in [10]) was more than 30 µM in each case.
